These results are taken from PubChem BioAssay (NCI).

Among the test systems are EKVX NSCLC; HOP-62 NSCLC; M14 melanoma; MDA-MB-231 breast; MDA-MB-435; MOLT-4 leukemia; SF-539 CNS; SN12C renal; UACC-257 melanoma; HS 578T breast.
What all share (assay): inhibition of tumour cell growth, NCI panel, 48 h

The structures appear in SMILES notation.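 Protocol summary: plate cells (96-well), add compound at 5 concentrations, incubate 48 h, interpolate endpoints linearly. TGI: total growth inhibition.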 Where only a bound is given, the exact number is not on record here.

For `O=C(NNC(=O)c1ccccc1SSc1ccccc1C(=O)NNC(=O)c1ccccc1S)c1ccccc1S`, the TGI in the experiment with EKVX NSCLC was above 71.5 µM; in the experiment with HOP-62 NSCLC, above 100 µM; in the experiment with M14 melanoma, above 100 µM; in the experiment on MDA-MB-231 breast, above 74.6 µM; in the experiment on MDA-MB-435, above 100 µM; in the experiment with MOLT-4 leukemia it was above 87 µM. In addition, the values for the TGI in the experiment on SF-539 CNS, in the experiment with SN12C renal and in the experiment with UACC-257 melanoma were above 53.9 µM, above 92.6 µM and above 95.4 µM, respectively.

Regarding `CCOC(=O)C1=C(C)NC(=S)NC1c1ccccc1` (stereo not drawn), the TGI in the experiment on EKVX NSCLC, in the experiment with HOP-62 NSCLC, in the experiment on M14 melanoma, in the experiment with MOLT-4 leukemia, with SF-539 CNS and in the experiment on SN12C renal was above 100 µM each time. In the experiment with UACC-257 melanoma, this molecule displayed a TGI above 100 µM.

`O=C(Cc1cccs1)N[C@@H]1C(=O)N2C(C(=O)OC(c3ccccc3)c3ccccc3)=C(CO)CS[C@H]12`: the TGI in the experiment with EKVX NSCLC, in the experiment with M14 melanoma, with MDA-MB-231 breast, in the experiment with MDA-MB-435, in the experiment with MOLT-4 leukemia and in the experiment with SF-539 CNS was above 100 µM in each case. Further, the TGI with SN12C renal and with UACC-257 melanoma was above 100 µM throughout.

Take `Cc1cn(C2CC(N(O)C(N)=O)C(CO)O2)c(=O)[nH]c1=O` (stereo not drawn): the TGI in the experiment with HOP-62 NSCLC, with M14 melanoma, with MDA-MB-231 breast, in the experiment on MDA-MB-435, in the experiment on MOLT-4 leukemia and with SF-539 CNS was above 100 µM throughout. Moreover, in the experiment on SN12C renal, the TGI was above 100 µM.

Consider `CC1=C(C)[C@@]2(C)O[C@@]2(C)O[C@@]2(C)O[C@@]12C`, for which the TGI with EKVX NSCLC, in the experiment with HOP-62 NSCLC, in the experiment on HS 578T breast, in the experiment on M14 melanoma, in the experiment on MDA-MB-231 breast and in the experiment on MDA-MB-435 was above 100 µM in each case. The TGI in the experiment with SN12C renal and in the experiment with UACC-257 melanoma was above 100 µM throughout.

`Brc1ccc(N=c2nc3ccccn3n3nc(-c4ccccc4)cc23)cc1`: the TGI was above 100 µM in the experiment with EKVX NSCLC; 32.8 µM in the experiment with HOP-62 NSCLC; 33 µM in the experiment on M14 melanoma; above 100 µM in the experiment with MOLT-4 leukemia; above 100 µM with SF-539 CNS; above 100 µM in the experiment with SN12C renal. Also, the TGI in the experiment with UACC-257 melanoma is above 100 µM.

For `O=C1c2ccccc2C2C1N2C(=O)C(F)(F)F` (stereo not drawn), the TGI in the experiment with EKVX NSCLC, in the experiment on HOP-62 NSCLC, in the experiment on M14 melanoma, with MOLT-4 leukemia, in the experiment with SF-539 CNS and in the experiment with SN12C renal was above 100 µM each time. The TGI with UACC-257 melanoma is above 100 µM.

In the case of `COc1ccc(CNc2nc(NCc3ccc(OC)c(OC)c3)nc(NC3CCCCC3)n2)cc1`, the TGI is above 100 µM in the experiment on EKVX NSCLC; above 100 µM with M14 melanoma; above 100 µM in the experiment on MDA-MB-231 breast; above 100 µM in the experiment on MDA-MB-435; above 100 µM in the experiment with MOLT-4 leukemia; 8.46 µM in the experiment on SF-539 CNS. Also, the TGI in the experiment on SN12C renal and in the experiment with UACC-257 melanoma was above 100 µM throughout.

On to `CC(C)/C(Cl)=N\OC(=O)Nc1ccc(S(N)(=O)=O)cc1`, for which the TGI is 32.6 µM with EKVX NSCLC; above 57.2 µM in the experiment on HOP-62 NSCLC; 63.5 µM in the experiment on HS 578T breast; 22.1 µM in the experiment with M14 melanoma; 25.9 µM with MDA-MB-231 breast; 5.42 µM with MOLT-4 leukemia. The TGI is 31.5 µM in the experiment on SF-539 CNS, 29.2 µM in the experiment on SN12C renal and 32.4 µM in the experiment on UACC-257 melanoma.

In the case of `O=C1CCC23CC(C=CC=C12)n1c(=O)n(-c2ccccc2)c(=O)n13` (stereo not drawn), the TGI in the experiment on EKVX NSCLC, in the experiment on HOP-62 NSCLC, in the experiment with MOLT-4 leukemia, in the experiment on SF-539 CNS, in the experiment with SN12C renal and with UACC-257 melanoma was above 100 µM each time.

As for `COc1ccc2c(=O)c(O)c(-c3ccc(OC)c(OC)c3)oc2c1`, the TGI is above 100 µM with EKVX NSCLC; 36.1 µM in the experiment with HOP-62 NSCLC; above 100 µM with M14 melanoma; above 100 µM in the experiment with MDA-MB-231 breast; above 100 µM in the experiment on MDA-MB-435; above 100 µM with MOLT-4 leukemia. Moreover, the TGI with UACC-257 melanoma is above 100 µM.

For the molecule `CC(=O)Nc1ccc(-c2nnc(SCC(=O)Nc3ccc([N+](=O)[O-])cc3)o2)cc1`, the TGI was 53.4 µM in the experiment with HOP-62 NSCLC; 26.9 µM in the experiment on M14 melanoma; above 100 µM in the experiment with MOLT-4 leukemia; 39.2 µM in the experiment with SF-539 CNS; 29.8 µM in the experiment with SN12C renal; 24.7 µM in the experiment with UACC-257 melanoma.

As for `C[C@]12CC[C@H](O)CC1=CC[C@@H]1C2CC[C@]2(C)C(=O)N(N)C(=O)CC12` (stereo partly drawn), the TGI with EKVX NSCLC, with HOP-62 NSCLC, in the experiment on M14 melanoma, in the experiment on MOLT-4 leukemia, in the experiment with SF-539 CNS and in the experiment with SN12C renal was above 100 µM each time. Also, in the experiment on UACC-257 melanoma, the TGI was above 100 µM.

As for `CNS(=O)(=O)NNS(=O)(=O)c1ccc2ccccc2c1`, the TGI in the experiment with EKVX NSCLC, in the experiment on HOP-62 NSCLC, with M14 melanoma, with MOLT-4 leukemia, with SF-539 CNS and in the experiment on SN12C renal was above 100 µM in each case. In addition, in the experiment with UACC-257 melanoma, the TGI is above 100 µM.

For the molecule `CCC12C=CCN3CCC4(C(=C(C(=O)OC)[C@@H]1O)Nc1ccccc14)C32` (stereo partly drawn), the TGI was 3.92 µM with EKVX NSCLC; 4.12 µM with HOP-62 NSCLC; 5.54 µM with M14 melanoma; 11.7 µM in the experiment with MOLT-4 leukemia; 4.72 µM in the experiment with SF-539 CNS; 5.71 µM in the experiment with SN12C renal. The molecule further displayed a TGI with UACC-257 melanoma of 3.42 µM.

On to `N.N.N.N.O=[N+]([O-])[O-].[Co+3].[N-]=[N+]=[N-].[N-]=[N+]=[N-]`, for which the TGI in the experiment with EKVX NSCLC, in the experiment on HOP-62 NSCLC, in the experiment with M14 melanoma, in the experiment with MOLT-4 leukemia, with SF-539 CNS and in the experiment on SN12C renal was above 100 µM each time. In addition, in the experiment with UACC-257 melanoma, the TGI was above 100 µM.

On to `[N-]=[N+]=Nc1cc(=O)oc2ccccc12`, for which the TGI in the experiment with HOP-62 NSCLC, in the experiment on M14 melanoma, with MOLT-4 leukemia, with SF-539 CNS, in the experiment with SN12C renal and with UACC-257 melanoma was above 100 µM in each case.
